Test systems include SK-OV-3; SF-268; NCI-H23; IGROV-1; NCI-H522; OVCAR-4; UO-31; RXF 393; SK-MEL-28; Malme-3M; M14; K562; COLO 205; HCT-116; HCT-15; OVCAR-5; U-251.
Common to all, as to assay: inhibition of tumour cell growth, NCI panel, 48 h

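Five concentrations, 48 hours, 96-well plates. GI50 = concentration required for 50% inhibition of growth.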 Active and inactive are the calls of the source. Cut-off read from the data, not from the text of the source: active = GI50 up to about 1.1 µM and inactive = higher.

Experimental findings from ChEMBL document CHEMBL1201862, “PubChem BioAssay data set” (2004) are described below.

Regarding `CC(=O)Nc1ccccc1Sc1ccccc1`, the GI50 in the test on SK-OV-3 is > 100 µM (inactive); with SF-268, 72.9 µM (inactive); in the test with NCI-H23 it was > 100 µM (inactive); with IGROV-1, > 100 µM (inactive); in the test on NCI-H522, 36.6 µM (inactive); in the test on OVCAR-4, > 100 µM (inactive). In addition, the GI50 in the test with UO-31 is 28.6 µM (inactive); in the test on RXF 393, 74.5 µM (inactive); with SK-MEL-28, > 100 µM (inactive); in the test on Malme-3M it was > 100 µM (inactive); with M14, > 100 µM (inactive); in the test with K562 it was > 100 µM (inactive). Besides, the GI50 in the test on COLO 205 is > 100 µM (inactive); in the test on HCT-116, > 100 µM (inactive); in the test on HCT-15 it was more than 100 µM; in the test on OVCAR-5, > 100 µM (inactive); in the test on U-251, > 100 µM (inactive).

For `Cc1ccc(C(=O)C(C2=Nc3nnc(N)n3C2=O)C2=Nc3nnc(N)n3C2=O)cc1`, the GI50 in the test with SK-OV-3, in the test on SF-268, in the test with NCI-H23, in the test with IGROV-1, with NCI-H522 and with OVCAR-4 was > 100 µM (inactive) in each case. Moreover, the GI50 with UO-31, with RXF 393, with SK-MEL-28, with Malme-3M, in the test on M14 and in the test with K562 was > 100 µM (inactive) throughout. Also, the GI50 in the test with COLO 205 is > 100 µM (inactive); in the test on HCT-15 it was more than 100 µM; in the test with OVCAR-5 it was > 100 µM (inactive).

In the case of `CCc1cccc(C)c1NC(=O)C(=O)Cc1nc2ccccc2o1`, the GI50 with SK-OV-3, in the test with SF-268, with NCI-H23, in the test with IGROV-1, in the test with NCI-H522 and in the test on OVCAR-4 was > 100 µM (inactive) in each case. Also, the GI50 in the test on UO-31, in the test on RXF 393, in the test on SK-MEL-28, in the test with Malme-3M, with M14 and in the test with K562 was > 100 µM (inactive) each time. Further, the GI50 is > 100 µM (inactive) in the test with COLO 205; > 100 µM (inactive) with HCT-116; more than 100 µM with HCT-15; > 100 µM (inactive) in the test on OVCAR-5; > 100 µM (inactive) in the test with U-251.

Consider `O=C1C2C(C(=O)N1O)N(Cc1ccccc1)C(=O)N2Cc1ccccc1` (centres undefined), for which the GI50 in the test with SK-OV-3, in the test on SF-268, in the test with NCI-H23, in the test with IGROV-1, with NCI-H522 and with OVCAR-4 was > 100 µM (inactive) each time. Moreover, the GI50 with UO-31, in the test with RXF 393, in the test with SK-MEL-28, in the test on Malme-3M, with M14 and in the test on K562 was > 100 µM (inactive) throughout. In addition, the GI50 was > 100 µM (inactive) in the test on COLO 205; > 100 µM (inactive) with HCT-116; more than 100 µM in the test with HCT-15; > 100 µM (inactive) in the test with OVCAR-5; > 100 µM (inactive) in the test on U-251.

Consider `O=C1O[C@@H](c2ccccc2)C[C@H]1CN1CCOCC1`, for which the GI50 in the test on SK-OV-3 is 68.1 µM (inactive); in the test with SF-268 it was > 100 µM (inactive); in the test with NCI-H23, 17 µM (inactive); in the test on IGROV-1 it was > 100 µM (inactive); in the test on NCI-H522 it was > 100 µM (inactive); in the test on OVCAR-4, > 100 µM (inactive). In addition, the GI50 with UO-31 was > 100 µM (inactive); with RXF 393 it was > 100 µM (inactive); in the test with SK-MEL-28 it was > 100 µM (inactive); in the test with Malme-3M, > 100 µM (inactive); with M14, > 100 µM (inactive); with K562, 40.7 µM (inactive). Besides, the GI50 was 97.5 µM (inactive) in the test on COLO 205, more than 100 µM with HCT-15, > 100 µM (inactive) in the test with OVCAR-5 and > 100 µM (inactive) in the test on U-251.

For `C#CC1(O)c2ccccc2C(=O)c2ccccc21`, the GI50 was > 100 µM (inactive) with SF-268; > 100 µM (inactive) with NCI-H23; 11.8 µM (inactive) with IGROV-1; > 100 µM (inactive) with NCI-H522; > 100 µM (inactive) in the test on OVCAR-4; > 100 µM (inactive) in the test on RXF 393. The GI50 with SK-MEL-28, with Malme-3M, in the test with K562, in the test with COLO 205, in the test on HCT-116 and in the test with OVCAR-5 was > 100 µM (inactive) throughout. For the same compound, the GI50 in the test on U-251 was > 100 µM (inactive).

`CC(C)C(=O)Nc1nc2c(ncn2C2OC(CO)C(O)C2O)c(=O)[nH]1` (centres undefined): the GI50 in the test on SK-OV-3, in the test with SF-268, with NCI-H23, in the test on IGROV-1, in the test on NCI-H522 and in the test on OVCAR-4 was > 100 µM (inactive) each time. For the same compound, the GI50 in the test on UO-31, in the test with RXF 393, with SK-MEL-28, in the test with Malme-3M, with M14 and in the test on K562 was > 100 µM (inactive) each time. Also, the GI50 with COLO 205 is > 100 µM (inactive); in the test on HCT-116 it was > 100 µM (inactive); in the test on HCT-15 it was more than 100 µM; in the test on OVCAR-5, > 100 µM (inactive); in the test with U-251 it was > 100 µM (inactive).

As to `NC(=O)N1N=C2c3ccccc3OC[C@H]2[C@@H]1c1ccccc1`, the GI50 with SK-OV-3 was 8.95 µM (inactive); in the test with SF-268 it was 9.86 µM (inactive); in the test with NCI-H23, 22.6 µM (inactive); in the test on IGROV-1, 18.8 µM (inactive); in the test on NCI-H522, 3.3 µM (inactive); in the test on OVCAR-4, 33.7 µM (inactive). Further, the GI50 with UO-31 is 42.4 µM (inactive); with RXF 393, 2.72 µM (inactive); with SK-MEL-28, 25.5 µM (inactive); in the test on Malme-3M, 21.1 µM (inactive); in the test on M14, 2.07 µM (inactive); in the test with K562 it was 14.4 µM (inactive). For the same compound, the GI50 in the test with COLO 205 is 18.2 µM (inactive); with HCT-116 it was 5.6 µM (inactive); in the test with HCT-15, 5.55 µM; with OVCAR-5, 20.1 µM (inactive); in the test on U-251, 5.14 µM (inactive).

Turning to `OC1/C(=C/c2ccccc2)CNC/C1=C\c1ccccc1` (centres undefined), the GI50 in the test with SK-OV-3 is > 100 µM (inactive); in the test with SF-268, > 100 µM (inactive); in the test on IGROV-1, > 100 µM (inactive); in the test on NCI-H522 it was > 100 µM (inactive); with OVCAR-4, > 100 µM (inactive); with UO-31, 87.5 µM (inactive). In addition, the GI50 in the test with RXF 393, in the test with SK-MEL-28, with Malme-3M, with M14, in the test with COLO 205 and in the test on HCT-116 was > 100 µM (inactive) in each case. The GI50 was more than 100 µM with HCT-15, > 100 µM (inactive) with OVCAR-5 and > 100 µM (inactive) in the test on U-251.

Consider `CN(C)c1ccc2nc3c(ccc4ccccc43)[o+]c2c1`, for which the GI50 with SK-OV-3 was 15.7 µM (inactive); with SF-268 it was 15.8 µM (inactive); in the test with NCI-H23, 14 µM (inactive); with IGROV-1, 12.3 µM (inactive); in the test on NCI-H522, 2.52 µM (inactive); in the test on OVCAR-4 it was 12.8 µM (inactive). Further, the GI50 in the test on UO-31 is 17.7 µM (inactive); with RXF 393, 13.3 µM (inactive); with SK-MEL-28, 14.8 µM (inactive); in the test with Malme-3M, 12.9 µM (inactive); with M14, 11 µM (inactive); with K562, 2.74 µM (inactive). Moreover, the GI50 is 16.3 µM (inactive) in the test with COLO 205; 5.97 µM (inactive) with HCT-116; 11.8 µM with HCT-15; 21.9 µM (inactive) in the test with OVCAR-5; 16.1 µM (inactive) in the test on U-251.

Consider `O=[N+]([O-])c1nccn1CC(O)c1ccc(F)cc1` (centres undefined), for which the GI50 in the test with SK-OV-3, with SF-268, in the test with NCI-H23, in the test with IGROV-1, in the test on NCI-H522 and with OVCAR-4 was > 100 µM (inactive) each time. For the same compound, the GI50 in the test with UO-31, with RXF 393, in the test on SK-MEL-28, in the test with Malme-3M, in the test with M14 and with K562 was > 100 µM (inactive) each time. Besides, the GI50 in the test on COLO 205 was > 100 µM (inactive); in the test with HCT-15, more than 100 µM; in the test on OVCAR-5, > 100 µM (inactive); in the test on U-251 it was > 100 µM (inactive).

`O=C(Sc1sc(=S)sc1SC(=O)c1ccccc1)c1ccccc1`: the GI50 with SK-OV-3 is 22.9 µM (inactive); in the test on SF-268 it was 62.1 µM (inactive); in the test on NCI-H23, > 100 µM (inactive); in the test with IGROV-1, 43.2 µM (inactive); in the test on NCI-H522, > 100 µM (inactive); in the test on OVCAR-4, > 100 µM (inactive). Also, the GI50 in the test with RXF 393 was > 100 µM (inactive); with SK-MEL-28, > 100 µM (inactive); in the test with Malme-3M, 78.3 µM (inactive); with M14, 68.9 µM (inactive); in the test with K562, > 100 µM (inactive); in the test on COLO 205, > 100 µM (inactive). Further, the GI50 in the test on HCT-116 was 71.1 µM (inactive); in the test on HCT-15, more than 100 µM; with OVCAR-5 it was 33.1 µM (inactive); with U-251, 28.8 µM (inactive).

On to `Cn1c(=O)nc2n(-c3cccc(Br)c3)c3ccccc3nc-2c1=O`, for which the GI50 in the test on SK-OV-3 is 21.3 µM (inactive); in the test on SF-268, 8.91 µM (inactive); with NCI-H23, 1.61 µM (inactive); in the test with IGROV-1, 7.76 µM (inactive); with NCI-H522, 6.62 µM (inactive); in the test with OVCAR-4, 3.71 µM (inactive). The GI50 in the test with UO-31 was 12.9 µM (inactive); with RXF 393, 11.5 µM (inactive); in the test with Malme-3M, 2.71 µM (inactive); with M14 it was 2.81 µM (inactive); with K562, 5.16 µM (inactive); with COLO 205, 1.68 µM (inactive). Further, the GI50 was 4.35 µM (inactive) with HCT-116, 4.06 µM with HCT-15, 13.3 µM (inactive) in the test on OVCAR-5 and 5.01 µM (inactive) with U-251.
